“And” between values parts separate entries of the source, which are not always exact repeats. Equal entries are not always repeated. Inconclusive results and toxic doses are left out. How the source made its calls: active means survival T/C of 150% or more; inactive means T/C below 125% in these data.
System: AKR/Lw mice, AKR lymphoma ip, median survival T/C
Test: NCI In Vivo Anticancer Drug Screen. Data for tumor model Lymphoma AKR (Transplanted) (intraperitoneal) in AKR/Lw mice
Settings: endpoint: median survival time, higher = longer survival
Protocol: The antitumor activity of compounds was measured in mice bearing transplantable tumors. Survival or tumor size were measured and the results are expressed as the measurement made in the treated group (T) divided by the measurement made in the vehicle treated control group (C). The tumor model used in this assay is Lymphoma AKR (Transplanted) (intraperitoneal) in AKR/Lw mice

[1] = dose: 100.0 mg/kg/injection, schedule: Q01DX001 (ip), vehicle: Klucel (hydroxypropylcellulose) (HPC)
[2] = dose: 200.0 mg/kg/injection, schedule: Q01DX001 (ip), vehicle: Klucel (hydroxypropylcellulose) (HPC)
[3] = dose: 400.0 mg/kg/injection, schedule: Q01DX001 (ip), vehicle: Klucel (hydroxypropylcellulose) (HPC)
[4] = dose: 100.0 mg/kg/injection, schedule: Q01DX001 (ip), vehicle: saline with Tween-80
[5] = dose: 50.0 mg/kg/injection, schedule: Q01DX001 (ip), vehicle: saline

Measured: T/C

CN(Cc1cnc2nc(N)nc(N)c2n1)c1ccc(C(=O)N[C@@H](CCC(=O)O)C(=O)O)cc1
active: dose: 1.5 mg/kg/injection, schedule: Q01DX015 (ip), vehicle: saline 197 % of control
inactive: dose: 0.15 mg/kg/injection, schedule: Q04DX003 (ip), vehicle: saline 100 % of control | dose: 0.25 mg/kg/injection, schedule: Q01DX001 (ip), vehicle: saline 106 % of control | dose: 0.25 mg/kg/injection, schedule: Q01DX009 (ip), vehicle: saline 112 % of control | dose: 0.25 mg/kg/injection, schedule: Q01DX015 (ip), vehicle: saline 114 % of control and 116 % of control | dose: 0.3 mg/kg/injection, schedule: Q04DX003 (ip), vehicle: saline 111 % of control | dose: 0.5 mg/kg/injection, schedule: Q01DX001 (ip), vehicle: saline 109 % of control and 117 % of control | dose: 0.5 mg/kg/injection, schedule: Q04DX008 (ip), vehicle: saline 116 % of control | dose: 0.6 mg/kg/injection, schedule: Q04DX003 (ip), vehicle: saline 98 % of control | dose: 0.75 mg/kg/injection, schedule: Q01DX009 (ip), vehicle: saline 112 % of control | dose: 0.75 mg/kg/injection, schedule: Q04DX003 (ip), vehicle: saline 87 % of control and 93 % of control and 111 % of control | dose: 1.0 mg/kg/injection, schedule: Q01DX001 (ip), vehicle: saline 109 % of control and 115 % of control | dose: 1.2 mg/kg/injection, schedule: Q01DX009 (ip), vehicle: saline 91 % of control | dose: 1.5 mg/kg/injection, schedule: Q01DX001 (ip), vehicle: saline 89 % of control and 102 % of control | dose: 2.0 mg/kg/injection, schedule: Q01DX001 (ip), vehicle: saline 106 % of control and 115 % of control | dose: 2.0 mg/kg/injection, schedule: Q04DX003 (ip), vehicle: saline 95 % of control | dose: 2.5 mg/kg/injection, schedule: Q01DX009 (ip), vehicle: saline 87 % of control and 91 % of control | dose: 3.0 mg/kg/injection, schedule: Q01DX001 (ip), vehicle: saline 100 % of control and 114 % of control and 116 % of control | dose: 4.0 mg/kg/injection, schedule: Q01DX001 (ip), vehicle: saline 116 % of control | dose: 4.0 mg/kg/injection, schedule: Q01DX009 (ip), vehicle: saline 94 % of control | dose: 4.0 mg/kg/injection, schedule: Q04DX003 (ip), vehicle: saline 109 % of control | dose: 4.0 mg/kg/injection, schedule: Q04DX008 (ip), vehicle: saline 113 % of control | dose: 5.0 mg/kg/injection, schedule: Q01DX001 (ip), vehicle: saline 114 % of control | dose: 5.0 mg/kg/injection, schedule: Q01DX009 (ip), vehicle: saline 88 % of control | dose: 10.0 mg/kg/injection, schedule: Q01DX001 (ip), vehicle: saline 102 % of control and 104 % of control | dose: 11.0 mg/kg/injection, schedule: Q04DX008 (ip), vehicle: saline 123 % of control | dose: 12.0 mg/kg/injection, schedule: Q01DX001 (ip), vehicle: saline 107 % of control and 111 % of control | dose: 12.0 mg/kg/injection, schedule: Q04DX003 (ip), vehicle: saline 93 % of control and 100 % of control | dose: 16.0 mg/kg/injection, schedule: Q04DX004 (ip), vehicle: saline 93 % of control | dose: 20.0 mg/kg/injection, schedule: Q01DX001 (ip), vehicle: saline 102 % of control | dose: 24.0 mg/kg/injection, schedule: Q04DX003 (ip), vehicle: saline 94 % of control | dose: 24.0 mg/kg/injection, schedule: Q04DX004 (ip), vehicle: saline 115 % of control | dose: 40.0 mg/kg/injection, schedule: Q01DX001 (ip), vehicle: saline 108 % of control

CC[CH](C)[Hg][c]1cccc2ccccc12 (configuration not stated)
inactive: [1] 91 % of control | [2] 86 % of control

COc1ccc(C2c3cc4c(c(OC)c3CC3OCC(=O)C32)OCO4)cc1OC (configuration not stated)
inactive: dose: 25.0 mg/kg/injection, schedule: Q01DX009 (ip), vehicle: Klucel (hydroxypropylcellulose) (HPC) 110 % of control | dose: 50.0 mg/kg/injection, schedule: Q01DX009 (ip), vehicle: Klucel (hydroxypropylcellulose) (HPC) 103 % of control

C[C@]12CCC(=O)C=C1CC[C@@H]1[C@@H]2[C@@H](O)C[C@@]2(C)[C@H]1CC[C@]2(O)C(=O)CO
inactive: dose: 5.0 mg/kg/injection, schedule: Q01DX005 (sc), vehicle: steriod suspending solution 117 % of control | dose: 10.0 mg/kg/injection, schedule: Q01DX005 (sc), vehicle: steriod suspending solution 106 % of control | dose: 20.0 mg/kg/injection, schedule: Q01DX005 (sc), vehicle: steriod suspending solution 106 % of control | dose: 25.0 mg/kg/injection, schedule: Q01DX005 (sc), vehicle: steriod suspending solution 94 % of control | dose: 50.0 mg/kg/injection, schedule: Q01DX005 (sc), vehicle: steriod suspending solution 107 % of control

O=C(Nc1ccccc1)Oc1ccc(Cl)cc1
inactive: [1] 100 % of control | [2] 100 % of control | [3] 106 % of control

COc1ccc(N2C(=O)CC(Sc3ccccc3N)C2=O)cc1 (configuration not stated)
inactive: [3] 87 % of control

O=C(Nc1cccc(Cl)c1)Oc1ccc2ccccc2c1
inactive: [4] 100 % of control | dose: 100.0 mg/kg/injection, schedule: Q01DX009 (ip), vehicle: saline 92 % of control | dose: 200.0 mg/kg/injection, schedule: Q01DX001 (ip), vehicle: saline with Tween-80 100 % of control | dose: 200.0 mg/kg/injection, schedule: Q01DX009 (ip), vehicle: saline 112 % of control | dose: 400.0 mg/kg/injection, schedule: Q01DX001 (ip), vehicle: saline with Tween-80 105 % of control | dose: 400.0 mg/kg/injection, schedule: Q04DX003 (ip), vehicle: saline 93 % of control

Cc1cnc2c(N)[nH]nc2n1
inactive: dose: 25.0 mg/kg/injection, schedule: Q01DX001 (ip), vehicle: Klucel (hydroxypropylcellulose) (HPC) 100 % of control | dose: 50.0 mg/kg/injection, schedule: Q01DX001 (ip), vehicle: Klucel (hydroxypropylcellulose) (HPC) 97 % of control | [1] 106 % of control

O=NN(CCCl)C(=O)NC1CCCCC1
inactive: dose: 2.0 mg/kg/injection, schedule: Q04DX003 (ip), vehicle: Klucel (hydroxypropylcellulose) (HPC) 102 % of control | dose: 2.5 mg/kg/injection, schedule: Q01DX001 (ip), vehicle: Klucel (hydroxypropylcellulose) (HPC) 109 % of control | dose: 4.4 mg/kg/injection, schedule: Q04DX003 (ip), vehicle: Klucel (hydroxypropylcellulose) (HPC) 106 % of control | dose: 5.0 mg/kg/injection, schedule: Q01DX001 (ip), vehicle: Klucel (hydroxypropylcellulose) (HPC) 111 % of control | dose: 5.0 mg/kg/injection, schedule: Q04DX004 (ip), vehicle: Klucel (hydroxypropylcellulose) (HPC) 100 % of control | dose: 6.25 mg/kg/injection, schedule: Q07DX003 (ip), vehicle: saline 109 % of control | dose: 6.7 mg/kg/injection, schedule: Q04DX003 (ip), vehicle: Klucel (hydroxypropylcellulose) (HPC) 122 % of control | dose: 10.0 mg/kg/injection, schedule: Q04DX003 (ip), vehicle: Klucel (hydroxypropylcellulose) (HPC) 115 % of control | dose: 10.0 mg/kg/injection, schedule: Q04DX004 (ip), vehicle: Klucel (hydroxypropylcellulose) (HPC) 100 % of control | dose: 12.5 mg/kg/injection, schedule: Q07DX003 (ip), vehicle: saline 96 % of control and 115 % of control and 118 % of control | dose: 25.0 mg/kg/injection, schedule: Q01DX001 (ip), vehicle: saline 106 % of control and 115 % of control | dose: 25.0 mg/kg/injection, schedule: Q07DX003 (ip), vehicle: saline 106 % of control and 109 % of control | [5] 115 % of control
active: dose: 7.0 mg/kg/injection, schedule: Q01DX001 (ip), vehicle: Klucel (hydroxypropylcellulose) (HPC) 165 % of control | dose: 25.0 mg/kg/injection, schedule: Q01DX001 (ip), vehicle: saline with Tween-80 159 % of control | dose: 50.0 mg/kg/injection, schedule: Q01DX001 (ip), vehicle: saline with Tween-80 365 % of control | [4] 218 % of control

CC(=O)c1cccc(N)c1
inactive: [1] 93 % of control and 105 % of control | [2] 91 % of control | [3] 94 % of control and 122 % of control | dose: 600.0 mg/kg/injection, schedule: Q01DX001 (ip), vehicle: Klucel (hydroxypropylcellulose) (HPC) 94 % of control

O=C(/C=C/c1cccc([N+](=O)[O-])c1)NCCBr
inactive: [1] 102 % of control | [2] 104 % of control | [3] 86 % of control

C1CC[N+]2=C(C1)OCCC2
inactive: [5] 94 % of control | dose: 100.0 mg/kg/injection, schedule: Q01DX001 (ip), vehicle: saline 91 % of control | dose: 200.0 mg/kg/injection, schedule: Q01DX001 (ip), vehicle: saline 97 % of control

Source: PubChem BioAssay AID190 (DTP/NCI, 2004)
